“Also recorded” adds a separate entry of the source.
What was measured:
[1] = system: PBT138 patient tumor-derived glioma cells; test: In vitro cytotoxicity assay, IL13Rα2-CAR T cells ± ICG-001; format: cell-based, human
Procedure: (§1) FIG. 2. Combinational strategy of CAR T cell-mediated tumor-antigen targeting with ICG-001 induced differentiation in glioma. […] (B) Cytotoxicity of HER2 CAR-T cells and tumor cells (1:5 ratio) was enhanced by ICG-001 at concentrations 1.25-5 μM. (C) Treatment of PBT138 patient glioma tumors with CAR T IL13Rα2+/−ICG-001.
It has also been observed that ICG-001-induced differentiation of PBT017 and PBT138 (data not shown).

[2] = system: interferon-y regulated chemokines CXCL9-11 in the TME; test: Orthotopic syngeneic murine hepatocellular carcinoma model (qRT-PCR, IHC); format: in vivo; conditions: qRT-PCR, previously demonstrated
Source text: CXCL9 and CXCL10, are produced mainly by BATF3 dendritic cells that are required for Teff trafficking. The CXCL9, CXCL10, CXCL11/CXCR3 signaling axis is critical for activated T-helper type 1 (Th1), cytotoxic T-cell (CTL), and natural killer (NK) cell recruitment immune cell recruitment in vivo. A similar effect resulting from ICG-001 is likely, such as increased CD8^+T-cell infiltration into brain tumors (FIG. 3B).

[3] = target: β-catenin/CBP interaction (Homo sapiens, UniProt Q92793); conditions: cited from earlier work
[4] = system: Wnt target genes BIRC5/Survivin and EphB2; test: Quantitative RT-PCR of Wnt target genes in human glioma cell lines; format: cell-based
Procedure: (§2) FIG. 15. Expression of target genes post-ICG-001 treatment (0-10 μM) by RT-PCR using (A-C) mouse Survivin in GL261-IL13, GL261, and K-luc cells. (D) Survivin in PBT147 human glioma cells. (E, F) Luciferase reporter assay indicating downregulation of Survivin/BIRC5 in PBT017 and PBT030 cell lines.
(§3) FIG. 16 is a table showing the expression of the target genes survivin/BIRC5 post-ICG-001 treatment ([…]) as detected by RT-PCR and Luciferase Reporter Assay.
(§4) ICG-001 differentially affects the expression of the Wnt target genes BIRC5/Survivin and EphB2 in vitro. […] The effects of ICG-001 on Wnt/CBP/β-catenin signaling were further confirmed using a Survivin-luciferase reporter assay (FIG. 15). ICG-001's selective effects on the expression of Survivin and EphB2 may serve as indicators of ICG-001 on target tissue activity in vivo (FIG. 16) and a readout for pharmacokinetics/pharmacodynamics (PK/PD) as used previously in clinical trials with the second-generation CBP/β-catenin specific antagonist PRI-724 (Anthony et al. 2013).

[5] = system: human patient-derived glioma (PBT017, PBT030, PBT135, PBT144, and PBT147); test: ICG-001 single agent on human patient-derived glioma cell lines (growth kinetics, morphology); format: cell-based
Procedure: as §1
FIG. 11. (A, B) Growth kinetics of human PBT glioma lines (PBT017, PBT030, PBT135, PBT144, and PBT147) treated with ICG-001 (0-10 μM) for 7 days and (C) mouse glioma cells (GL261, GL261-IL13, and K-luc) treated with ICG-001 (0-10 μM) for 4 days. Red boxes indicate PBT030 and PBT147 cell lines used for Nanostring and proteomics analysis. Scale bars represent S.D. of triplicate samples. (D-F) Growth kinetics of PBT017 (2,500 cells/well) treated with or without HER2-CAR T cells (500 cells/well) and with or without ICG-001 (0-5 μM). The red line is CAR T cell treatment only and the bottom three lines are with ICG-001. Experiment was done in quadruplicate and error bars indicate S.D.
PBT tumor cells lines are patient derived tumors dissociated and grown in DMEM/F12 medium, supplemented with heparin, hepes, glutamax and B27. EFG and FGF is added at the time of the culture as described previously (Brown et al. 2009). ICG-001 was kindly provided by another laboratory.
In vitro experiments. Co-culture assay of PBT cell lines grown as described above and seeded to 100,000 cells/2 ml in 6 well plates. ICG-001 is added to the cell culture in concentrations […] for 24-72 h, as described previously (Brown et al. 2013).
(§5) ICG-001 activity in vitro in human and mouse glioma cell lines. Initially, the effects of the specific CBP/β-catenin antagonist ICG-001 was tested in vitro as a single agent on human and mouse glioma cell lines (5 PBT human and 3 mouse glioma lines).

[6] = system: Survivin/BIRC5 (Wnt/CBP/β-catenin signaling); test: Survivin-luciferase reporter assay; format: cell-based, human; conditions: PBT017 and PBT030 cell lines
Procedure: as §2, §3, §4

KIF20A = test: qRT-PCR of KIF20A in PBT147 and PBT030 cells; format: cell-based, human
Procedure: as §5

[7] = system: T cells derived from 3 donors; test: NanoString gene expression analysis of T cells treated with ICG-001; format: cell-based; conditions: ICG-001 2.5 or 5 μM
Procedure: FIG. 27. T cells treated with ICG001 2.5 and 5 μM for 24 or 72 h. (A) CAR Ts mock and HER2 from one donor and mock CARs derived from two additional donors were plated on 6-well format plates and treated with ICG001 at concentrations 0-5 μM for 24 or 72 h. Cells were collected from each well, counted, and viability was determined. (B, C) NanoString analysis of T cells treated with ICG-001 to determine concentration-dependent metabolic changes. […] (E) Correlation of differential gene expression in all T cell lines combined at concentration of 2.5 and 5 μM.
Antagonism of WNT/CBP/β-catenin signaling effects CAR T cells. Wnt signaling plays critical roles in T cell development and commitment (Li et al. 2019). Thus, the combined data derived from all T cell lines used and compared with untreated controls was analyzed for each T cell line.
However, at a higher concentration of ICG-001, a higher degree of differential gene expression was observed. […]

Chain of β-catenin/CBP interaction (Q92793 whole entry): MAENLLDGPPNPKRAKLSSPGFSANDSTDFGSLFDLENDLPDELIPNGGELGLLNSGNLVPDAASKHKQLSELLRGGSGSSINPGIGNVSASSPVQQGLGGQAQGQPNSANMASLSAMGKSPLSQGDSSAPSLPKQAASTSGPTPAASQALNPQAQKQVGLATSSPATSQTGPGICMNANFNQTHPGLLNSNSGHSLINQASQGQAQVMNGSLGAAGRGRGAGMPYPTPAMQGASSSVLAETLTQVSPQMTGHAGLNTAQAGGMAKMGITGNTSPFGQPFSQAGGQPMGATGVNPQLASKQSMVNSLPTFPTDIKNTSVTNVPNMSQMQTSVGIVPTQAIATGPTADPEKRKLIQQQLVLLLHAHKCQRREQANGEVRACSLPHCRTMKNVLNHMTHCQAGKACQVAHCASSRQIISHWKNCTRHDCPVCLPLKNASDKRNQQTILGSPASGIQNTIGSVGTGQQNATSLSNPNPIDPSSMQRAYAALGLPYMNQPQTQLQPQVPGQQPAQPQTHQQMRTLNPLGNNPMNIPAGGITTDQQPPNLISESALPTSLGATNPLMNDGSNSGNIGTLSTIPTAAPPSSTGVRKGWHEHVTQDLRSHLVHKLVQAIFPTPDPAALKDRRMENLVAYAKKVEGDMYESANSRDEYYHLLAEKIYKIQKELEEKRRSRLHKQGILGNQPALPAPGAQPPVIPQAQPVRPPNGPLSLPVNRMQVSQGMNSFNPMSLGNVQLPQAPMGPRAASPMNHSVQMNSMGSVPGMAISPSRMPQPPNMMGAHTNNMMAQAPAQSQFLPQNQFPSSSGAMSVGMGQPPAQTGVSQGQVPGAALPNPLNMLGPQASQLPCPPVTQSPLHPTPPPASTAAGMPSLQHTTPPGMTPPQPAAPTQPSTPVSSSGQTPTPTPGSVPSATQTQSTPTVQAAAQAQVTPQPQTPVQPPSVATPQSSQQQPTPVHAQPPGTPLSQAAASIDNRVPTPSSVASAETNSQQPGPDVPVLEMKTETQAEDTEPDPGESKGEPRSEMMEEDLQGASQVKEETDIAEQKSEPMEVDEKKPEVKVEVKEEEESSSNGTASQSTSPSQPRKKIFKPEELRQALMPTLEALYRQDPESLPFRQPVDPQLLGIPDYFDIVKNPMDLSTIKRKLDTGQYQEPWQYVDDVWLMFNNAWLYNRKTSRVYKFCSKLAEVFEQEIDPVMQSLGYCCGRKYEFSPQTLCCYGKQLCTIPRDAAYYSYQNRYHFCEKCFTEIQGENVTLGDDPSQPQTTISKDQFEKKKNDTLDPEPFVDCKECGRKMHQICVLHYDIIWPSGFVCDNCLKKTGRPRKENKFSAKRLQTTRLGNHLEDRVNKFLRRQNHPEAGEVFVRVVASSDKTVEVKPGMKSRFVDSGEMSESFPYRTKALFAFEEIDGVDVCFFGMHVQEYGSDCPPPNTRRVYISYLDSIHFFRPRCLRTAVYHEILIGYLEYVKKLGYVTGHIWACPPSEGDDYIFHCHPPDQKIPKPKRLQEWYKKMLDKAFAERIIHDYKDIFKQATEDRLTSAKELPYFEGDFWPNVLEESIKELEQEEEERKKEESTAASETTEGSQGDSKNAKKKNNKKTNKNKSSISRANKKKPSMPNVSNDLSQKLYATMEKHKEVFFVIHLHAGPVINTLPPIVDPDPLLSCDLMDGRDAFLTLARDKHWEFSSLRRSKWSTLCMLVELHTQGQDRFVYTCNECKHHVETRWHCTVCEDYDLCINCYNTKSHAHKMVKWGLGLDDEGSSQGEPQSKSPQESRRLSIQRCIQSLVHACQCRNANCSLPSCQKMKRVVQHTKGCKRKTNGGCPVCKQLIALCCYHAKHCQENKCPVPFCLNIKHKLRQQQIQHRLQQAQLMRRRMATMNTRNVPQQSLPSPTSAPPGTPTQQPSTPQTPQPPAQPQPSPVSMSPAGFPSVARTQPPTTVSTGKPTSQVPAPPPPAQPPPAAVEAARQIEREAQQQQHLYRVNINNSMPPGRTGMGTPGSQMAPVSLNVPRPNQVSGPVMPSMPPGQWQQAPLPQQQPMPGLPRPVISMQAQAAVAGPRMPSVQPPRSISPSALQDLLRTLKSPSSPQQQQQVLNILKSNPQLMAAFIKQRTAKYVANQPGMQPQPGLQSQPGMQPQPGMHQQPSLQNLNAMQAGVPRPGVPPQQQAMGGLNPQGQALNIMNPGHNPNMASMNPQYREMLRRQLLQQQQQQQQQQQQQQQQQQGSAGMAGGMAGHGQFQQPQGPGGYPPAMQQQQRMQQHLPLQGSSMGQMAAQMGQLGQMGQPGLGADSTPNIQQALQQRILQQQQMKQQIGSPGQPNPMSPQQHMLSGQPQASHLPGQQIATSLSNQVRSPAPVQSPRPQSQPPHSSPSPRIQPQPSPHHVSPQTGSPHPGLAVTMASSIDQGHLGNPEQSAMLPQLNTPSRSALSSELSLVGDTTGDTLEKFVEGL

Structure (SMILES): O=C1[C@H](Cc2ccc(O)cc2)N2C(=O)CCN(C(=O)NCc3ccccc3)[C@H]2CN1Cc1cccc2ccccc12 [ICG-001]
- tumor cell killing, ICG-001 in combination with IL13Rα2-CAR T cells [1]: synergistic killing
- expression of interferon-y regulated chemokines CXCL9-11 in the TME [2]: significantly increased; also recorded: increased the expression
- blockade of β-catenin/CBP versus β-catenin/p300 interaction [3]: selectively blocks the β-catenin/CBP interaction without interfering with the β-catenin/p300 interaction
- expression of Wnt/p300/β-catenin target gene EphB2 [4]: upregulating
- expression of Wnt/CBP/β-catenin target gene BIRC5/Survivin ([4]; ICG-001 0-10 μM): selectively downregulated
- effect on cell growth (growth kinetics) ([5]; ICG-001 0-10 μM, 7 days, PBT017, PBT030, PBT135, PBT144, PBT147): concentration dependent cytostatic effect
- differentiation and growth of PBT017 glioma cells ([5]; ICG-001 0.75-10 μM, PBT017): differentiation and cell growth arrest
- morphological phenotype ([5]; all glioma lines, demonstrated with PBT017.RFP): less proliferative and more differentiated phenotype
- Survivin/BIRC5 luciferase reporter activity [6]: downregulation
- KIF20A expression (KIF20A): decreased expression of KIF20A
- T cell differentiation [7]: directed T cell differentiation into multiple types of effector and memory T cells
- expression of DPP4, CD48, CEBPB, B2M, ICOSLG, CD81, CXCR4, XBP1, NFIL3, and others in T cells ([7]; 24 or 72 h): upregulation of key genes

From US20220354852A1, “TARGETING WNT SIGNALING FOR IMPROVED GLIOMA IMMUNOTHERAPY” (CITY OF HOPE, priority 2021, published 2022)
